Patent publication US9550751B2, “Processes for the preparation of pesticidal compounds” (Dow AgroSciences LLC, priority 2013, dated 2017)
Where a name gives a salt, the structure may show the parent alone. Read-outs that look alike come from different tables or passages of the source.

Assays:
[1] = tested on: Green Peach Aphid (Myzus persicae) (MYZUPE); test: Bioassays on Green Peach Aphid (GPA), foliar spray on cabbage seedlings; assay type: in vivo; conditions: 72 h, read-out: MYZUPE rating (% Control of Mortality)
Description: Several molecules disclosed herein were tested against GPA using procedures described below.
Cabbage seedling grown in 3-in pots, with 2-3 small (3-5 cm) true leaves, were used as test substrate. The seedlings were infested with […] (wingless adult and nymph stages) one day prior to chemical application. Four pots with individual seedlings were used for each treatment. Test compounds (2 mg) were dissolved in 2 mL of acetone/MeOH (1:1) solvent, forming stock solutions of 1000 ppm test compound. The stock solutions were diluted 5× with 0.025% Tween 20 in water to obtain the solution at 200 ppm test compound. A hand-held aspirator-type sprayer was used for spraying a solution to both sides of the cabbage leaves until runoff. Reference plants (solvent check) were sprayed with the diluent only containing 20% by volume acetone/MeOH (1:1) solvent. Treated plants were held in a holding room for three days at approximately 25° C. and ambient relative humidity (RH) prior to grading. Evaluation was conducted by counting the number of live aphids per plant under a microscope. Percent Control was measured by using Abbott's correction formula (W. S. Abbott, “A Method of Computing the Effectiveness of an Insecticide” J. Econ. Entomol 18 (1925), pp. 265-267) as follows. Corrected % Control=100*(X−Y)/X • where • X=No. of live aphids on solvent check plants and • Y=No. of live aphids on treated plants
The results are indicated in the table entitled “Table 1: GPA (MYZUPE) and sweetpotato whitefly-crawler (BEMITA) Rating Table”.

[2] = tested on: Sweetpotato Whitefly Crawler (Bemisia tabaci) (BEMITA); test: Bioassays on Sweetpotato Whitefly Crawler, foliar spray on cotton plants; assay type: in vivo; conditions: read-out: BEMITA rating (% Control of Mortality)
Description: Cotton plants grown in 3-inch pots, with 1 small (3-5 cm) true leaf, were used at test substrate. The plants were placed in a room with whitely adults. Adults were allowed to deposit eggs for 2-3 days. After a 2-3 day egg-laying period, plants were taken from the adult whitefly room. Adults were blown off leaves using a hand-held Devilbliss sprayer (23 psi). Plants with egg infestation (100-300 eggs per plant) were placed in a holding room for 5-6 days at 82° F. and 50% RH for egg hatch and crawler stage to develop. Four cotton plants were used for each treatment. Compounds (2 mg) were dissolved in 1 mL of acetone solvent, forming stock solutions of 2000 ppm. The stock solutions were diluted 10× with 0.025% Tween 20 in water to obtain a test solution at 200 ppm. A hand-held Devilbliss sprayer was used for spraying a solution to both sides of cotton leaf until runoff. Reference plants (solvent check) were sprayed with the diluent only. Treated plants were held in a holding room for 8-9 days at approximately 82° F. and 50% RH prior to grading. Evaluation was conducted by counting the number of live nymphs per plant under a microscope.

SMILES | mortality at 200 ppm [1] | mortality at 200 ppm [2] | mortality at 200 ppm ([1]; 200 ppm spray on cabbage seedlings, graded after three days, Abbott's correction, live aphids)
Nc1c[nH]nc1Cl [Compound 1a, 3-chloro-1H-pyrazol-4-amine hydrochloride] | 0 to 80% | 0 to 80% | 
CCN(C(=O)CCSCCC(F)(F)F)c1c[nH]nc1Cl [Compound 4.7, N-(3-chloro-1H-pyrazol-4-yl)-N-ethyl-3-((3,3,3-trifluoropropyl)thio)propanamide] |  |  | < 0%
CCNc1c[nH]nc1Cl [Compound 7a, 3-Chloro-N-ethyl-1H-pyrazol-4-amine] | < 0% |  | 
